Experimental data from article PMC8231945, “Ingol and Ingenol-Type Diterpenes from Euphorbia trigona Miller with Keratinocyte Inhibitory Activity” (Plants, 2021).
Read-outs that look alike come from different tables or passages of the source.

Test system: HPV-Ker cells
Experiment: Viability test of HPV-Ker keratinocytes by real-time impedance monitoring (xCELLigence RTCA)
Type: cell-based, human
Conditions: for keratinocyte inhibitory activity in vitro (overall verdict) / cytotoxic effect against keratinocytes: HPV-Ker; for keratinocyte inhibitory activity in vitro (overall verdict): compared to ingenol mebutate; for IC50: Homo sapiens, Keratinocyte
Description: The main risk factor of induction of AK is UV irradiation. The UVB component of sunlight damages DNA, which might cause mutations in p53 and other tumor suppressor genes. Therefore, as an in vitro model of AK, we used the HPV-Ker cell line which contains the E6 oncoprotein of the human papillomavirus, leading to the degradation of the p53 tumor suppressor [26].
Since our compounds, especially the ingenol-derivatives, are structurally very similar to ingenol mebutate (Figure 3), we were interested in whether they have any effect on the viability of keratinocytes. The HPV-Ker cell line was treated with the isolated ingol- and ingenol-type diterpenoids with a concentration range of 5 × 10^−9–5 × 10^−4 M, the viability was measured with the xCELLigence System RTCA HT (Agilent Technologies, Santa Clara, CA, USA) instrument for 72 h, and data at 24 and 48 h were used for calculations (Table 1). IC50 values were calculated based on the sigmoidal dose–response formula.
The immortalized human keratinocyte cell line (HPV-Ker) was cultured in Keratinocyte-SFM supplemented with 5 ng/mL of recombinant epidermal growth factor, […] of bovine pituitary extract, and antibiotic/antimycotic solution in a CO2 thermostat at 37 °C.
The effect of the extracts and the purified compounds on HPV-Ker cells was investigated by real-time monitoring with the xCELLigence System RTCA HT Instrument (ACEA Biosciences, San Diego, CA, USA). 8 × 10^3 HPV-Ker cells were seeded in 96-well E-plates and keratinocytes were allowed to attach to the bottom of the wells and grow for 24 h. Cells were then treated with the indicated extract or substance for another 72 h. Real-time measurements of impedance were monitored every 15 min, then data at 24 and 48 h were used for calculations. The half-maximal inhibitory concentration (IC50) values for the compounds were calculated and GraphPad Prism 9.0 was used to plot results. All experiments were performed in duplicate, in three independent repeats.

[1] = HPV-Ker cell line, 24 h of treatment, ± SD, read-out: IC50 Value 24 h
[2] = HPV-Ker cell line, 48 h of treatment, ± SD, read-out: IC50 Value 48 h
[3] = HPV-Ker cells, RTCA normalized CI * hours, 24 h, read-out: IC50 (24h), Figure 4
[4] = HPV-Ker cells, RTCA normalized CI * hours, 48 h, read-out: IC50 (48h), Figure 4

Row | SMILES | IC50 [1] [µM] | IC50 [2] [µM] | further results
1 | C/C=C(/C)C(=O)O[C@H]1C(C)=CC23C(=O)[C@@H](C=C(COC(C)=O)[C@@H](OC(C)=O)[C@]12O)[C@H]1[C@@H](C[C@H]3C)[C@@]1(C)COC(C)=O [Compound 7, 17-acetoxyingenol 3 angelate 5,20-diacetate] | 0.32 ± 0.02 | 0.87 ± 0.07 | keratinocyte inhibitory activity in vitro (overall verdict): strong keratinocyte inhibitory activity; IC50 [3]: 0.323 µM; IC50 [4]: 0.873 µM
2 | C/C=C(/C)C(=O)O[C@H]1C(C)=C[C@]23C(=O)[C@@H](C=C(CO)[C@@H](O)[C@]12O)[C@H]1[C@@H](C[C@H]3C)C1(C)C [Ingenol mebutate, reference compound] | 0.84 ± 0.01 | 0.96 ± 0.03 | cytotoxic effect against keratinocytes (0.5 µg/mL, 24 h): weaker, but still significant, cytotoxic effect; cytotoxic effect against keratinocytes (0.5 µg/mL, 48 h): comparable to the treatment when 5 µg/mL was used for 48 h; cytotoxic effect against keratinocytes (5 µg/mL, 24 h): strongest cytotoxic effect; cytotoxic effect against keratinocytes (5 µg/mL, 48 h): lower cytotoxicity; IC50 [3]: 0.844 µM; IC50 [4]: 0.959 µM
3 | C/C=C(/C)C(=O)O[C@H]1C(C)=CC23C(=O)[C@@H](C=C(COC(C)=O)[C@@H](O)[C@]12O)[C@H]1[C@@H](C[C@H]3C)[C@@]1(C)COC(C)=O [Compound 6, 17-acetoxyingenol 3-angelate 20-acetate] | 0.39 ± 0.09 | 0.32 ± 0.05 | keratinocyte inhibitory activity in vitro (overall verdict): strong keratinocyte inhibitory activity
4 | C/C=C(/C)C(=O)O[C@H]1C(C)=CC23C(=O)[C@@H](C=C(C)[C@@H](O)[C@]12O)[C@H]1[C@@H](C[C@H]3C)[C@@]1(C)COC(C)=O [Compound 8, 17-acetoxy-20-deoxyingenol 3-angelate] | 4.32 ± 0.92 |  | 
5 | C/C=C(\C)C(=O)O[C@@H]1/C(C)=C/[C@@]23O[C@@]2(C[C@H](C)[C@@H]3OC(C)=O)C(=O)[C@H](C)[C@H](OC(C)=O)[C@@H]2[C@H]([C@@H]1OC)C2(C)C [Compound 2, 8-O-methyl-ingol 3,12-diacetate 7-tigliate] | 17.3 ± 1.65 | 14.5 ± 3.78 | 
6 | C/C=C(\C)C(=O)O[C@@H]1/C(C)=C/[C@@]23O[C@@]2(C[C@H](C)[C@@H]3OC(C)=O)C(=O)[C@H](C)[C@H](OC(C)=O)[C@@H]2[C@H]([C@@H]1O)C2(C)C [Compound 1, Ingol 3,12-diacetate 7-tigliate] | 14.2 ± 2.85 | 1.72 ± 0.14 | 
7 | C/C=C(/C)C(=O)O[C@@H]1C(C)=C[C@@H]2C(=O)C3(C=C(C)[C@H](O)[C@@]13O)[C@H](C)C[C@@H]1[C@H]2[C@]1(C)COC(C)=O [Compound 9, 17-acetoxy-20-deoxyingenol 5-angelate] | 14.8 ± 3.83 | 7.93 ± 1.71 | 
8 | CO[C@H]1[C@H]2[C@@H]([C@@H](OC(C)=O)[C@@H](C)C(=O)[C@@]34C[C@H](C)[C@H](OC(C)=O)[C@]3(/C=C(\C)[C@H]1OC(=O)c1ccccc1)O4)C2(C)C [Compound 3, 8-O-methyl-ingol 3,12-diacetate 7-benzoate] |  |  | IC50 Value 24 h (HPV-Ker cell line, 24 h of treatment, ± SD): inactive; IC50 Value 48 h (HPV-Ker cell line, 48 h of treatment, ± SD): inactive
